{"source": "patent US11827543B2", "about": "“Method for continuous supply of superoxide-containing peracetate oxidant solution” (Clean Chemistry, Inc., priority 2014, dated 2023)", "key": {"bacteria": {"tested_on": "bacteria", "assay": "ATP concentration (LuminUltra metabolic ATP measurement) in oxidant-treated water", "assay_type": "cell-based", "conditions": "produced water, Example 18, 0.30 mmol/L oxidant"}, "[1]": {"assay": "ORP (oxidative-reductive potential) measurement of solutions and treated water", "assay_type": "physicochemical", "conditions": "for ORP (mV vs SHE): early flowback water, Example 19, 1.7 mmol/L oxidant; for ORP: 29 mM, pH 7", "description": "Example 9: Hydrogen Peroxide Residual Concentration and interference. A sodium peracetate oxidant solution was produced according to the procedure in Example 4 and diluted to 2800 mg/L (28.5 mmol/L) with either distilled water, for clean water conditions, or tap water containing about 0.18 mg/L copper, which served as an activation catalyst. Some samples were spiked with 30 or 60 mg/L (0.88 or 1.76 mmol/L, respectively) hydrogen peroxide from a 1000 mg/L stock solution. […] The temperature of the samples was maintained at 25±2° C. with a heated water bath. The ORP response was monitored over time to observe the impact of adding low concentrations of hydrogen peroxide. The pH was measured using a high sodium electrode (Oakton model 35805-05) with three point calibration and automatic temperature correction. The ORP (oxidative-reductive potential) of solutions was measured using an Oakton model 35805-15 ORP probe calibrated to the standard hydrogen electrode (SHE) using Thermo/Orion ORP standard 967901.\n(§1) Water parameters were measured by a variety of methods. The pH was measured using a high sodium electrode (Oakton model 35805-05) with three point calibration and automatic temperature correction. The ORP (oxidative-reductive potential) of solutions was measured using an Oakton model 35805-15 ORP probe calibrated to the standard hydrogen electrode (SHE) using Thermo/Orion ORP standard 967901. Sodium ion concentration was measured using a Cole-Parmer ion selective electrode, EW-27504-30, with two point calibration of a sodium standard solution of NaCl. Chloride ion concentration was measured using a Cole-Parmer ion selective electrode, SC-27504-08, with two point calibration of a chloride standard solution of NaCl. All measurements using HACH methods were measured using a HACH DR900 colorimeter. Calcium, magnesium and total hardness concentrations were measured using HACH method 8030. Sulfate concentration was measured using HACH method 10248. Aluminum concentration was measured using HACH method 8012. Iron concentration was measured using HACH method 10249 modified with a longer reaction time to minimize interferences from organic impurities. Total suspended solids (TSS) concentration was measured using HACH method 8006 modified for smaller volumes. Turbidity was measured using HACH method 8237. ATP (adenosine triphosphate) concentration was measured using the LuminUltra 2nd Generation metabolic ATP measurement technology with the LuminUltra Quench Gone-Organic Modified sampling method, a PhotonMaster Luminometer and LumiCalc software. Acid producing bacteria (ABP) and sulfate reducing bacteria (SRB) cell culture concentrations were measured with standard 1 mL serial dilutions using Intertek APB and SRB culture media, 1% salinity."}, "pH of treated water": {"assay": "pH of treated water", "assay_type": "physicochemical", "description": "as §1"}, "[2]": {"assay": "Chlorine dioxide stock solution concentration over time (HACH DPD method)", "assay_type": "physicochemical", "conditions": "2800 mg/L stock solution, room temperature, 7 days", "description": "Chlorine dioxide stock solution preparation: One AQUA-Tab 20 G chlorine dioxide tablet (Beckart Environmental, Inc.) was dissolved in 32 oz (946 mL) of distilled water in a closed polyethylene container according to the product instructions. The yellow solution was allowed to sit for at least 1 hour before use. The chlorine dioxide concentration was measured before use using the HACH DPD method no. 10126 after diluting 0.330 mL of the prepared chlorine dioxide stock solution with distilled water to 200 mL in a volumetric flask. The initial chlorine dioxide concentration of the stock solution was measured to be 2800 mg/L. The concentration decreased slowly over time at room temperature, e.g., 6.4% decrease in 7 days."}, "[3]": {"conditions": "produced water, Example 18, 0.30 mmol/L oxidant"}}, "data": [{"smiles": "[O][Cl+][O-]", "note": "[chlorine dioxide, reference compound]", "values": [{"measurement": "ATP (pg/mL), at 30 min CT", "setting": "bacteria", "result": 7.7, "unit": "pg/mL"}, {"measurement": "ATP reduction at 30 min CT", "setting": "bacteria", "result": 94.3, "unit": "%"}, {"measurement": "ATP (pg/mL), at 15 min CT", "setting": "bacteria; untreated 135", "result": 10.3, "unit": "pg/mL"}, {"measurement": "ORP (mV vs SHE)", "setting": "[1]; contact time 3 minutes", "result": 646, "unit": "mV vs SHE"}, {"measurement": "ORP (mV vs SHE)", "setting": "[1]; contact time 13 minutes", "result": 580, "unit": "mV vs SHE"}, {"measurement": "ORP (mV vs SHE)", "setting": "[1]; contact time 35 minutes", "result": 496, "unit": "mV vs SHE"}, {"measurement": "ORP (mV vs SHE)", "setting": "[1]; contact time 90 minutes", "result": 456, "unit": "mV vs SHE"}, {"measurement": "ORP (mV vs SHE), maximum", "setting": "[1]; [3]", "result": 818, "unit": "mV vs SHE"}, {"measurement": "ORP after slow decrease", "setting": "[1]; produced water, Example 18, 0.30 mmol/L, in the following 17 minutes", "result": 785, "unit": "mV vs SHE"}, {"measurement": "pH", "setting": "pH of treated water; early flowback water, Example 19, 1.7 mmol/L oxidant, contact time 3 minutes", "result": 6.33}, {"measurement": "pH", "setting": "pH of treated water; early flowback water, Example 19, 1.7 mmol/L oxidant, contact time 13 minutes", "result": 6.32}, {"measurement": "pH", "setting": "pH of treated water; early flowback water, Example 19, 1.7 mmol/L oxidant, contact time 35 minutes", "result": 6.32}, {"measurement": "pH", "setting": "pH of treated water; early flowback water, Example 19, 1.7 mmol/L oxidant, contact time 90 minutes", "result": 6.36}, {"measurement": "pH", "setting": "pH of treated water; [3]", "result": 5.6}, {"measurement": "decrease of concentration of stock solution", "setting": "[2]", "result": 6.4, "unit": "%"}]}, {"smiles": "OO", "note": "[hydrogen peroxide, reference compound]", "values": [{"measurement": "ORP", "setting": "[1]", "result": "about 0.5 V (SHE)"}]}, {"smiles": "OCl", "note": "[hypochlorous acid, reference compound]", "values": [{"measurement": "ORP", "setting": "[1]", "result": "over 1.1 V (SHE)"}]}, {"smiles": "OCl", "note": "[sodium hypochlorite, reference compound]", "values": [{"measurement": "ORP (constant)", "setting": "[1]; diluted, pH 10.00±0.02, 25±2 °C", "result": "about 914 mV vs SHE"}]}]}
